Article PMC8618917 (Pharmaceutics, 2021)
Read-outs that look alike come from different tables or passages of the source.

Tests used:
in vitro = conditions: human
SARS-CoV-2 = assay: microbe, parasite or virus in culture; assay type: cell-based; conditions: read-out: IC50, inhibition of SARS-CoV-2 infection
[1] = test system: MERS-CoV, SARS-CoV, and SARS-CoV-2; assay: organism not typed; assay type: cell-based
[2] = Five-day repeated dose toxicity study; conditions: mice; for Death / Time of 100% death after administration: intraperitoneal 10 mg/kg/day
SARS-CoV = assay: microbe, parasite or virus in culture; assay type: cell-based; conditions: read-out: IC50, inhibition of SARS-CoV infection
MERS-CoV [3] = assay: microbe, parasite or virus in culture; assay type: cell-based; conditions: for IC50: read-out: IC50, MERS-CoV virus-induced cytopathic effect
MERS-CoV [4] = assay: microbe, parasite or virus in culture; assay type: cell-based; conditions: for IC50: read-out: IC50, inhibition of MERS-CoV infection
[5] = Liver microsomal metabolic stability, rat; conditions: 1 μM compound, liver microsomes, 30 min
[6] = Liver microsomal stability, text summary over mouse, rat and human; conditions: rat, human, liver microsomes
[7] = Liver microsomal metabolic stability, human; conditions: 1 μM compound, liver microsomes, 30 min
[8] = Plasma protein binding, rat (rapid equilibrium dialysis)
CYP450 isozymes = assay: CYP450 inhibition, text summary over isozymes
[9] = Rat pharmacokinetic study
[10] = Plasma protein binding, text summary over mouse and rat; conditions: in mouse and rat
[11] = Plasma protein binding, mice (rapid equilibrium dialysis); conditions: mouse
[12] = Liver microsomal metabolic stability, mice; conditions: 1 μM compound, liver microsomes, 30 min
[13] = Severe acute respiratory syndrome coronavirus 2, Vero
[14] = intraperitoneal 2 mg/kg/day, data not shown
[15] = Severe acute respiratory syndrome coronavirus, Vero
[16] = Middle East respiratory syndrome-related coronavirus, Calu-3, 72 h
[17] = Middle East respiratory syndrome-related coronavirus, Vero, 24 h
[18] = intraperitoneal 10 mg/kg/day for 5 days
[19] = read-out: IC50, anti-coronavirus activity (range over both compounds and the viruses)
[20] = male, Sprague-Dawley, plasma, iv, 1 mg/kg
[21] = male, Sprague-Dawley, plasma, po, 2 mg/kg

For C[C@]12CC[C@H](O)C[C@H]1CC[C@@H]1[C@@H]2CC[C@]2(C)[C@@H](c3ccc(=O)oc3)CC[C@]12O [bufalin], which CC50 (in vitro) is on record?
The CC50 was > 50000 nM.

And the IC50 (SARS-CoV-2; [13])?
The IC50 was 19 nM.

And the IC50 ([1]; read-out: IC50, anti-SARS-CoV and SARS-CoV-2 activity (range over both viruses))?
Its IC50 is 16 to 19 nM.

And the Survival [2, 14]?
The Survival was 100%.

And the Death [2]?
Its Death is 100%.

And the “Time of 100% death after administration” value [2]?
Its value is 1 days.

And the IC50 (SARS-CoV; [15])?
The IC50 was 16 nM.

And the “Selectivity index (SI)” value (MERS-CoV [3])?
The value was > 91.9.

And the IC50 (MERS-CoV [3]; [16])?
The IC50 was 544 nM.

What about the IC50 (MERS-CoV [3]) of the same compound?
The IC50 was 544 nM.

And the IC50 (MERS-CoV [4]; [17])?
Its IC50 is 18 nM.

What does the source list for CC(=O)O[C@H]1C[C@]2(O)[C@@H]3CC[C@@H]4C[C@@H](O)CC[C@]4(C)[C@H]3CC[C@]2(C)[C@H]1c1ccc(=O)oc1 [bufotalin]?
CC50 (in vitro): > 50000 nM; IC50 (SARS-CoV-2; [13]): 72.9 nM; IC50 (SARS-CoV-2): 72 ± 1 nM; Survival [2, 18]: 100%; IC50 (SARS-CoV; [15]): 27 nM; Selectivity index (SI) (MERS-CoV [3]): > 30.7; IC50 (MERS-CoV [3]; [16]): 1630 nM; IC50 (MERS-CoV [4]; [17]): 63 nM

For CC(=O)O[C@H]1[C@H]2O[C@]23[C@@H]2CC[C@@H]4C[C@@H](O)CC[C@]4(C)[C@H]2CC[C@]3(C)[C@H]1c1ccc(=O)oc1 [cinobufagin], which CC50 (in vitro) is on record?
Its CC50 is > 50000 nM.

What about the “MS (% of Remaining), Rat” value [5] of the same compound?
Its value is 4.40%.

What about the remaining at 0.5 h, 1 μM [6] of the same compound?
The remaining at 0.5 h, 1 μM was < 5%.

What about the IC50 (SARS-CoV-2; [13]) of the same compound?
Its IC50 is 72.2 nM.

And the IC50 (SARS-CoV-2)?
The IC50 was 72 ± 1 nM.

And the “MS (% of Remaining), Human” value [7]?
The value was 2.99%.

And the fraction unbound at 4 h, 5 μM [8]?
The fraction unbound at 4 h, 5 μM was 0.218.

What about the Survival [2, 14] of the same compound?
Its Survival is 100%.

And the Death [2]?
Its Death is 100%.

And the “Time of 100% death after administration” value [2]?
Its value is 2 days.

What about the inhibition at 10 µM (CYP450 isozymes) of the same compound?
The inhibition at 10 µM was 4 to 46%.

What about the “Time within which all rats (n = 3) died” value ([9]; 1 mg/kg IV injection, data not shown) of the same compound?
Its value is ≤ 10 min.

And the “Detection in plasma after PO injection” value ([9]; 30 min after PO injection, 2 mg/kg, data not shown)?
Its value is “not detected”.

What about the fraction unbound at 4 h, 5 μM ([10]; mouse, rat, plasma, PPB rate) of the same compound?
The fraction unbound at 4 h, 5 μM was 0.1 to 0.22.

What about the fraction unbound at 4 h, 5 μM [11] of the same compound?
Its fraction unbound at 4 h, 5 μM is 0.092.

What about the IC50 (SARS-CoV; [15]) of the same compound?
The IC50 was 60.9 nM.

And the IC50 (SARS-CoV)?
Its IC50 is 60 ± 2 nM.

What about the IC50 (MERS-CoV [3]; [16]) of the same compound?
The IC50 was 616 nM.

What about the IC50 (MERS-CoV [3]) of the same compound?
The IC50 was 616 nM.

What about the “MS (% of Remaining), Mice” value [12] of the same compound?
Its value is 0.18%.

What about the IC50 (MERS-CoV [4]; [17]) of the same compound?
Its IC50 is 17 nM.

With CC(=O)O[C@H]1[C@H]2O[C@]23[C@@H]2CC[C@]4(O)C[C@@H](O)CC[C@]4(C)[C@H]2CC[C@]3(C)[C@H]1c1ccc(=O)oc1 [cinobufotalin] as the compound, how does the CC50 (in vitro) read?
The CC50 was > 50000 nM.

What about the IC50 (SARS-CoV-2; [13]) of the same compound?
The IC50 was 399 nM.

And the IC50 (SARS-CoV-2)?
Its IC50 is 399 ± 8 nM.

What about the IC50 [1, 19] of the same compound?
Its IC50 is 231 to 1610 nM.

What about the Survival [2, 18] of the same compound?
The Survival was 100%.

And the IC50 (SARS-CoV; [15])?
The IC50 was 429 nM.

What about the IC50 (SARS-CoV) of the same compound?
The IC50 was 429 ± 17 nM.

What about the “Selectivity index (SI)” value (MERS-CoV [3]) of the same compound?
Its value is > 12.6.

And the IC50 (MERS-CoV [3]; [16])?
Its IC50 is 3960 nM.

And the IC50 (MERS-CoV [4]; [17])?
The IC50 was 230 nM.

And the IC50 (MERS-CoV [4])?
The IC50 was 231 ± 14 nM.

For C[C@H]1O[C@@H](O[C@H]2[C@@H](O)C[C@H](O[C@H]3[C@@H](O)C[C@H](O[C@H]4CC[C@@]5(C)[C@H](CC[C@@H]6[C@@H]5CC[C@]5(C)[C@@H](C7=CC(=O)OC7)CC[C@]65O)C4)O[C@@H]3C)O[C@@H]2C)C[C@H](O)[C@@H]1O [digitoxin, Digitoxin], which CC50 (in vitro) is on record?
Its CC50 is > 50000 nM.

What about the IC50 (SARS-CoV-2; [13]) of the same compound?
Its IC50 is 59.9 nM.

And the IC50 (SARS-CoV-2)?
The IC50 was 59 ± 1 nM.

What about the Survival [2, 14] of the same compound?
The Survival was 100%.

What about the Death [2] of the same compound?
The Death was 100%.

And the “Time of 100% death after administration” value [2]?
Its value is 4 days.

What about the IC50 (SARS-CoV; [15]) of the same compound?
The IC50 was 62.1 nM.

And the IC50 (SARS-CoV)?
The IC50 was 62 ± 1 nM.

What about the “Selectivity index (SI)” value (MERS-CoV [3]) of the same compound?
Its value is > 33.4.

And the IC50 (MERS-CoV [3]; [16])?
Its IC50 is 1500 nM.

And the “Selectivity index (SI, CC50/IC50)” value (MERS-CoV [4])?
The value was > 147.9.

And the IC50 (MERS-CoV [4]; [17])?
The IC50 was 67 nM.

For C[C@]12CC[C@H](O)C[C@H]1CC[C@@H]1[C@@H]2CC[C@]2(C)[C@@H](c3ccc(=O)oc3)C[C@H]3O[C@]132 [resibufogenin], which CC50 (in vitro) is on record?
The CC50 was > 50000 nM.

What about the IC50 (SARS-CoV-2; [13]) of the same compound?
The IC50 was 1610 ± 63 nM.

And the IC50 [1, 19]?
The IC50 was 231 to 1610 nM.

And the IC50 (SARS-CoV; [15])?
The IC50 was 1360 ± 59 nM.

What about the “Selectivity index (SI)” value (MERS-CoV [3]) of the same compound?
The value was > 3.1.

And the IC50 (MERS-CoV [3]; [16])?
The IC50 was 16000 nM.

And the IC50 (MERS-CoV [4]; [17])?
Its IC50 is 1610 nM.

For C[C@]12CC[C@H](O)C[C@@]1(O)CC[C@@H]1[C@@H]2CC[C@]2(C)[C@@H](c3ccc(=O)oc3)CC[C@]12O [telocinobufagin], which CC50 (in vitro) is on record?
The CC50 was > 50000 nM.

And the “MS (% of Remaining), Rat” value [5]?
Its value is 31.9%.

And the remaining at 0.5 h, 1 μM [6]?
The remaining at 0.5 h, 1 μM was 15 to 30%.

What about the IC50 (SARS-CoV-2; [13]) of the same compound?
The IC50 was 142 nM.

What about the IC50 (SARS-CoV-2) of the same compound?
Its IC50 is 142 ± 2 nM.

What about the “MS (% of Remaining), Human” value [7] of the same compound?
The value was 15.1%.

What about the fraction unbound at 4 h, 5 μM [8] of the same compound?
The fraction unbound at 4 h, 5 μM was 0.032.

And the Survival [2, 18]?
Its Survival is 100%.

What about the inhibition at 10 µM (CYP450 isozymes) of the same compound?
Its inhibition at 10 µM is 1.4 to 21%.

What about the “Ft (oral bioavailability)” value ([9]; P.O., 2 mg/kg) of the same compound?
Its value is 33.2%.

And the AUC [9, 20]?
Its AUC is 604 ± 159 ng·h/mL.

What about the Vd [9, 20] of the same compound?
The Vd was 0.275 ± 0.169 L/kg.

And the clearance [9, 20]?
The clearance was 28.8 mL/min/kg.

What about the half-life [9, 20] of the same compound?
The half-life was 13.5 ± 1.2 min.

What about the AUC [9, 21] of the same compound?
Its AUC is 488 ± 204 ng·h/mL.

What about the Cmax [9, 21] of the same compound?
The Cmax was 537 ± 227 ng/mL.

And the Tmax [9, 21]?
Its Tmax is 20 ± 8.64 min.

What about the half-life [9, 21] of the same compound?
Its half-life is 30.6 ± 24.4 min.

And the bioavailability ([9]; male, Sprague-Dawley, plasma, po, 2 mg/kg, Ft (oral bioavailability), P.O.)?
The bioavailability was 33%.

What about the PPB rate [10] of the same compound?
The PPB rate was 96–97%.

What about the fraction unbound at 4 h, 5 μM [11] of the same compound?
The fraction unbound at 4 h, 5 μM was 0.022.

What about the IC50 (SARS-CoV; [15]) of the same compound?
Its IC50 is 71.2 nM.

And the IC50 (SARS-CoV)?
The IC50 was 71 ± 2 nM.

And the IC50 (MERS-CoV [3]; [16])?
Its IC50 is 464 nM.

What about the IC50 (MERS-CoV [3]) of the same compound?
Its IC50 is 465 nM.

What about the “MS (% of Remaining), Mice” value [12] of the same compound?
The value was 21.7%.

And the IC50 (MERS-CoV [4]; [17])?
Its IC50 is 27 nM.
